This is an account of results in US10047051B2, “Substituted pyridines and method of use” (AbbVie S.á{acute over (.)}r.l., priority 2015, dated 2018).

One test concerns the target T1, CFTR G551D mutant (Homo sapiens, UniProt P13569, G551D).
T1 construct: expressed in transfected cells; host or cells: HEK293 cells, reverse transfection with plasmids
Nature of the test: YFP-halide influx assay for the CFTR-G551D mutation (HEK293 cells). It counts as cell-based. Particulars: forskolin 10.67 μM. The source says: (§1) The YFP halide influx assay measured the functionality of the cystic fibrosis Transmembrane Conductance regulator (CFTR) channels. The assay was used to evaluate the capacity of compounds to increase the channel opening of existing mutant CFTR channels in the membrane. It makes use of the observation that the yellow fluorescent protein (YFP) variant YFP H148Q, I152L, F47L has its fluorescence substantially quenched by halide ions like Cl^− and I^− (Galietta, L. J. V., Haggie, P. M., Verkman, A. S., 2001. Green fluorescent protein-based halide indicators with improved chloride and iodide affinities. FEBS Lett. 499, 220-224. doi:10.1016/S0014-5793(01)02561-3).
For this purpose, HEK293-cells were seeded in 96 well plates. During seeding, the cells were reverse-transfected with plasmid vectors that direct the expression of the CFTR G551D mutant and of the YFP reporter. Cells were incubated at 37° C., 5% CO2 for 24 hours so as to allow for sufficient expression of the CFTR protein.
The I^−-induced quenching of fluorescence was recorded immediately after injection of I^− for 7 seconds. The capacity of a compound to increase the channel opening was directly correlated with the decrease in fluorescence, and was expressed as (1−(fluorescence after 7 seconds (F)/fluorescence before injection (F0))) and an EC50 was derived from a (1−F/F0) vs compound concentration plot.

The target in the next test is T2, CFTR ΔF508 mutant (Homo sapiens, UniProt P13569, DEL508-508).
T2 construct: expressed in transfected cells; host or cells: CFBE41o- cells, adenoviral transduction
Nature of the test: YFP-halide influx assay for the CFTR-ΔF508 mutation (CFBE41o- cells). It counts as cell-based. Particulars: forskolin 10.67 μM; for EC50: from (1−F/F0) vs concentration plot.
Source text: as §1, with “channels in the cystic fibrosis bronchial epithelium cell line CFBE41o-.” for “channels.”, “open probability” for “channel opening”, “existing” for “existing mutant”, “doi:10.1016/S0014-5793(01)02561-3; Nagai, T., Ibata, K., Park, E. S., Kubota, M., Mikoshiba, K., Miyawaki, A., 2002. A variant of yellow fluorescent protein with fast and efficient maturation for cell-biological applications. Nat. Biotechnol. 20, 87-90. doi: 10.1038/nbt0102-87).” for “doi:10.1016/S0014-5793(01)02561-3).”
For this purpose, CFBE41o-cells were seeded in 384 well plates (3000 CFBE cells/well). One day after seeding, the CFBE cells were transduced with adenoviral vectors that direct the expression of the CFTR ΔF508 mutant and of the YFP reporter. Cells were incubated at 27° C., 5% CO2 for 24 hours so as to allow for the proper folding and migration to the membrane of the CFTR channel or treated with a CFTR modulator during 24 hours at 37° C.
The I-induced quenching of fluorescence was recorded on an immediately after injection of iodide for 2 minutes on an FDSS/μCell (Hamamatsu). The capacity of a compound to increase the channel opening was directly correlated with the decrease in fluorescence, and was expressed as (1−(fluorescence after 36 seconds (F)/fluorescence before injection (F0))) and an EC50 was derived from a (1−F/F0) vs compound concentration plot.

T2 sequence (P13569 with tags, fused parts or gaps DEL508-508): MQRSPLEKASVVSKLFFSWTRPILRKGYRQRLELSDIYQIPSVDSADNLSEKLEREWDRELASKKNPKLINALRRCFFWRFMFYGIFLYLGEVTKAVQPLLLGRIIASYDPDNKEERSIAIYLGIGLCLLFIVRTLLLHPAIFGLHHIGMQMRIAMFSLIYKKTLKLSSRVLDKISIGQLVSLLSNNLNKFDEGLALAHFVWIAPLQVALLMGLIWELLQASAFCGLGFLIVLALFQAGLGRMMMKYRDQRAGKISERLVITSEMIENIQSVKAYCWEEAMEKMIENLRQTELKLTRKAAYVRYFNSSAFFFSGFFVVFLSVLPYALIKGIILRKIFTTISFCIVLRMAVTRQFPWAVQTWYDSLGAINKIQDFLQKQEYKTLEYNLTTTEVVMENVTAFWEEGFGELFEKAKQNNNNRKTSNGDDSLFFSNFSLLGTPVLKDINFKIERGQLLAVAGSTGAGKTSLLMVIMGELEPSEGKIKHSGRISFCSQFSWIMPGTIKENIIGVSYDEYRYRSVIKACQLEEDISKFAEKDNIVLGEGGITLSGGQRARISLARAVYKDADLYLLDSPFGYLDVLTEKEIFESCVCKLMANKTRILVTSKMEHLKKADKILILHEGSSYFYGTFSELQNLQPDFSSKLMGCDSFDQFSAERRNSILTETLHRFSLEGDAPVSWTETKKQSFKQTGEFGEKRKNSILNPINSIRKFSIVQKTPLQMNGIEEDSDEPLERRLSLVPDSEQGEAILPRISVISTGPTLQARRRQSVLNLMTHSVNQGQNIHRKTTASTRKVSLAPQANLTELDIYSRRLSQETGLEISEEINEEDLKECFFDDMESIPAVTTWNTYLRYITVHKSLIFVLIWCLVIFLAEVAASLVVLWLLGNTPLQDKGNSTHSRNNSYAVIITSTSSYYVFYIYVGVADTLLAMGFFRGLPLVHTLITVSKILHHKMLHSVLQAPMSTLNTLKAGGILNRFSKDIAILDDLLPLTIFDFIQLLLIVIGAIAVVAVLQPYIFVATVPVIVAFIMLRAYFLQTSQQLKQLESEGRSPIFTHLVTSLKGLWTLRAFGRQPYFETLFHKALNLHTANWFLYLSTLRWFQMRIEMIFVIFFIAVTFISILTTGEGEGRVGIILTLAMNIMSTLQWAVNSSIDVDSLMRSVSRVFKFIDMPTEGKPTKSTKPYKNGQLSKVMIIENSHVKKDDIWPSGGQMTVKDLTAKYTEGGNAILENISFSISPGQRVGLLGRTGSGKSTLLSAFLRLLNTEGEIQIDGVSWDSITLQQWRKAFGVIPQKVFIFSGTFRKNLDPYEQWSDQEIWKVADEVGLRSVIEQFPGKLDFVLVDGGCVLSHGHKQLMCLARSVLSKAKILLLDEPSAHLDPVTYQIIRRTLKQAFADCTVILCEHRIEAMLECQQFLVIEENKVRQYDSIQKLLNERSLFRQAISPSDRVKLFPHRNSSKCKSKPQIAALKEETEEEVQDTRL
T1 sequence (P13569 whole entry G551D): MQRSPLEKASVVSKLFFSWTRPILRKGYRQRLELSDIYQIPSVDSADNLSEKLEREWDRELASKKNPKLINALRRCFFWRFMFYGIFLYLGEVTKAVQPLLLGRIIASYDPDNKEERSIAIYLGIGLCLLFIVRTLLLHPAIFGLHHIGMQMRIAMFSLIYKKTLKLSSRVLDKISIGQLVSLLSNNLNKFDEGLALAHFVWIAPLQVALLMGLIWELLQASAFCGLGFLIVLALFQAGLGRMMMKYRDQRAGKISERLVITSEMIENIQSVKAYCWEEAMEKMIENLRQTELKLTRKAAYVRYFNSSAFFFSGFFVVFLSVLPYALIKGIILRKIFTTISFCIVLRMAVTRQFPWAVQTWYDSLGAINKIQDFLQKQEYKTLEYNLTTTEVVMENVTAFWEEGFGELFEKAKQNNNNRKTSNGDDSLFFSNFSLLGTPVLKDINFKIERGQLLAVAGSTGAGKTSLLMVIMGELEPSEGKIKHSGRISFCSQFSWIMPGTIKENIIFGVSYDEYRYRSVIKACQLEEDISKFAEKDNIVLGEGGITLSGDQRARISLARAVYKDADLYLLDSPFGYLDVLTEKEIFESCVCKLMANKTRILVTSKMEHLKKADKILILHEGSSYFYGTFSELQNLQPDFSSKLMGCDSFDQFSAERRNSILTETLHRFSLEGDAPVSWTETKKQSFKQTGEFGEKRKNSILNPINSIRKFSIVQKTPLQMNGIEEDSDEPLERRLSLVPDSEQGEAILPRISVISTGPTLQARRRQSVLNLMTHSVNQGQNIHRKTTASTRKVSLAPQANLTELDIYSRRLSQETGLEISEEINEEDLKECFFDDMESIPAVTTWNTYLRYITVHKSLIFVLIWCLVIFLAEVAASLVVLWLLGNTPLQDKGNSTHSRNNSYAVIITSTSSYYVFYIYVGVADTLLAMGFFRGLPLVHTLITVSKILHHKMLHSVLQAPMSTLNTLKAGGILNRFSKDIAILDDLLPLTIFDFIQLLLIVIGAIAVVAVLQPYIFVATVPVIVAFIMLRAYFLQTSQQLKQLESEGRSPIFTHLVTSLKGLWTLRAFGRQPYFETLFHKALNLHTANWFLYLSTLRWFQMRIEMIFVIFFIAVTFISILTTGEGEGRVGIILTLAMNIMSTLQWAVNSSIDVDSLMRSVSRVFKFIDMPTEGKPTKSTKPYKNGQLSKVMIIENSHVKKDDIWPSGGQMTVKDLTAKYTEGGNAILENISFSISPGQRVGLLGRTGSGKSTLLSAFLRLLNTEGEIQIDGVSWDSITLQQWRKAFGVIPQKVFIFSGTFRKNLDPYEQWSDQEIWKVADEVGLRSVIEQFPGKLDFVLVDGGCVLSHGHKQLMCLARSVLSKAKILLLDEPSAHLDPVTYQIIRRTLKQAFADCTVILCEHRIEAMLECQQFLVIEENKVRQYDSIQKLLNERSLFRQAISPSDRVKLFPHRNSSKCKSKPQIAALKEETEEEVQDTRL

Consider `Nc1cc(S(=O)(=O)c2ccc(C(F)(F)F)cc2F)cnc1C(=O)NCC(O)COCC1CC1` (stereo not shown) [Compound 132, 3-amino-N-[3-(cyclopropylmethoxy)-2-hydroxypropyl]-5-{[2-fluoro-4-(trifluoromethyl)phenyl]sulfonyl}pyridine-2-carboxamide], for which the figures for the “% Activation” value at CFTR G551D mutant and at CFTR ΔF508 mutant were 79.2% and 103.5%, respectively. Also, the values for the EC50 at CFTR G551D mutant and on CFTR ΔF508 mutant were 395 nM and 5.1 nM, respectively.
`Nc1cc(S(=O)(=O)c2ccc(OC(F)(F)F)cc2F)cnc1C(=O)NCC(O)COCC1CC1` (stereo not shown) [Compound 169, 3-amino-N-[3-(cyclopropylmethoxy)-2-hydroxypropyl]-5-{[2-fluoro-4-(trifluoromethoxy)phenyl]sulfonyl}pyridine-2-carboxamide]: the results for the “% Activation” value at CFTR G551D mutant and at CFTR ΔF508 mutant were 81.3% and 95.5%, respectively. The figures for the 50% effective concentration (EC50) on CFTR G551D mutant and at CFTR ΔF508 mutant were 1120 nM and 13.8 nM, respectively.
Regarding `CC(C)CNC(=O)c1ncc(S(=O)(=O)c2ccc(C(F)(F)F)cc2)cc1N` [Compound 189, 3-amino-N-(2-methylpropyl)-5-{[4-(trifluoromethyl)phenyl]sulfonyl}pyridine-2-carboxamide], on CFTR G551D mutant, the “% Activation” value came out at 30.7% and the concentration for a half-maximal effect (EC50) (usually the concentration that produces a half-maximal response) is above 10000 nM. In addition, on CFTR ΔF508 mutant, the “% Activation” value is 99.9% and it took 112 nM to reach a half-maximal effect (EC50).
On to `C[C@H]1CCCN1S(=O)(=O)c1cnc(C(=O)NCC(O)C(F)(F)F)c(N)c1` (stereo partly drawn) [Compound 181, 3-amino-5-{[(2S)-2-methylpyrrolidin-1-yl]sulfonyl}-N-(3,3,3-trifluoro-2-hydroxypropyl)pyridine-2-carboxamide], for which, on CFTR G551D mutant, the “% Activation” value stood at 61.4% and the EC50 turned out to be 1330 nM. Also, on CFTR ΔF508 mutant, the “% Activation” value came out at 90.6% and the response was half-maximal at 19.8 nM (EC50).
For the molecule `CN1CCC(O)(CNC(=O)c2ncc(S(=O)(=O)c3ccc(C(F)(F)F)cc3)cc2N)CC1` [Compound 230, 3-amino-N-[(4-hydroxy-1-methylpiperidin-4-yl)methyl]-5-{[4-(trifluoromethyl)phenyl]sulfonyl}pyridine-2-carboxamide], the “% Activation” value on CFTR G551D mutant worked out at 1.5%; on CFTR ΔF508 mutant, 12.4%. Moreover, the concentration for a half-maximal effect (EC50) at CFTR G551D mutant is above 10000 nM; at CFTR ΔF508 mutant, above 2000 nM.
For the molecule `Nc1cc(S(=O)(=O)c2ccc(OC(F)(F)F)cc2)cnc1C(=O)N1CC[C@H](F)C1` [Compound 206, (3-amino-5-{[4-(trifluoromethoxy)phenyl]sulfonyl}pyridin-2-yl)[(3S)-3-fluoropyrrolidin-1-yl]methanone], at CFTR G551D mutant, the “% Activation” value is 90.3% and the EC50 is 3150 nM. Moreover, at CFTR ΔF508 mutant, the “% Activation” value amounted to 103.0% and the EC50 is 74.8 nM.
Consider `C[C@H]1CCCN1S(=O)(=O)c1cnc(C(=O)N2CC(O)C2)c(N)c1` [Compound 272, (3-amino-5-{[(2S)-2-methylpyrrolidin-1-yl]sulfonyl}pyridin-2-yl) (3-hydroxyazetidin-1-yl)methanone], for which the “% Activation” value is on record as 2.8% on CFTR G551D mutant and 82.0% on CFTR ΔF508 mutant. The results for the EC50 on CFTR G551D mutant and on CFTR ΔF508 mutant were above 5000 nM and above 334 nM, respectively.
Consider `C[C@H](O)CNC(=O)c1nc(OCCN(C)C)c(S(=O)(=O)c2ccc(OC(F)(F)F)cc2)cc1N` [Compound 289, 3-amino-6-[2-(dimethylamino)ethoxy]-N-[(2S)-2-hydroxypropyl]-5-{[4-(trifluoromethoxy)phenyl]sulfonyl}pyridine-2-carboxamide], for which the “% Activation” value on CFTR G551D mutant was 31.0%; at CFTR ΔF508 mutant, 97.1%. On CFTR ΔF508 mutant, this molecule registered an EC50 of 245 nM.
Turning to `CC(C)(C)c1ccc(S(=O)(=O)c2cnc(C(=O)NCC(O)C(F)(F)F)c(N)c2)cc1` (stereo not shown) [Compound 247, 3-amino-5-[(4-tert-butylphenyl)sulfonyl]-N-(3,3,3-trifluoro-2-hydroxypropyl)pyridine-2-carboxamide], on CFTR G551D mutant, the “% Activation” value stood at 98.7% and the EC50 was determined as 219 nM. For the same molecule, on CFTR ΔF508 mutant, the “% Activation” value turned out to be 114.5% and the midpoint of the response, the EC50, lay at 4.3 nM.
Take `CC[C@@H](CO)NC(=O)c1ncc(S(=O)(=O)c2ccc(C(F)(F)F)cc2)cc1N` [Compound 234, 3-amino-N-[(2S)-1-hydroxybutan-2-yl]-5-{[4-(trifluoromethyl)phenyl]sulfonyl}pyridine-2-carboxamide]: at CFTR G551D mutant, the “% Activation” value turned out to be 46.1% and the EC50 turned out to be 1090 nM. Further, at CFTR ΔF508 mutant, the “% Activation” value was found to be 102.4% and a half-maximal response (EC50) required 39.3 nM.
Take `Nc1cc(S(=O)(=O)c2ccc(OC(F)(F)F)cc2)cnc1C(=O)NCCC1CC1` [Compound 152, 3-amino-N-(2-cyclopropylethyl)-5-{[4-(trifluoromethoxy)phenyl]sulfonyl}pyridine-2-carboxamide]: on CFTR G551D mutant, the “% Activation” value is 60.2% and the EC50 was found to be 1130 nM. At CFTR ΔF508 mutant, the “% Activation” value is listed as 93.3% and the EC50 amounted to 119 nM.
In the same order, the values of `Nc1cc(S(=O)(=O)c2ccc(C(F)(F)F)cc2)cnc1C(=O)NC[C@H](O)C(F)(F)F` [Compound 64, 3-amino-N-[(2S)-3,3,3-trifluoro-2-hydroxypropyl]-5-{[4-(trifluoromethyl)phenyl]sulfonyl}pyridine-2-carboxamide] are 72.5%, 160 nM, 107.0% and 1.3 nM.
In the case of `NC(=O)c1ncc(S(=O)(=O)c2ccc(OC(F)(F)F)cc2)cc1N` [Compound 297, 3-amino-5-{[4-(trifluoromethoxy)phenyl]sulfonyl}pyridine-2-carboxamide], on CFTR G551D mutant, the “% Activation” value was 85% and the EC50 turned out to be 518 nM. Besides, on CFTR ΔF508 mutant, the “% Activation” value came out at 109% and it took 53 nM to reach a half-maximal effect (EC50).
Consider `Nc1cc(S(=O)(=O)c2ccc(C(F)(F)F)cc2F)cnc1C(=O)NC[C@H]1CCOC1` [Compound 106, 3-amino-5-{[2-fluoro-4-(trifluoromethyl)phenyl]sulfonyl}-N-[(3R)-tetrahydrofuran-3-ylmethyl]pyridine-2-carboxamide], for which, on CFTR G551D mutant, the “% Activation” value was 42.4% and the EC50 was above 3330 nM. On CFTR ΔF508 mutant, the “% Activation” value came to 99.0% and the concentration giving a half-maximal response (EC50) was determined as 19.5 nM.
With `Nc1cc(S(=O)(=O)c2ccc(C(F)(F)F)cc2)c(C2CC2)nc1C(=O)NCCO` [Compound 258, 3-amino-6-cyclopropyl-N-(2-hydroxyethyl)-5-{[4-(trifluoromethyl)phenyl]sulfonyl}pyridine-2-carboxamide], on CFTR G551D mutant, the “% Activation” value stood at 108.0% and a half-maximal effect (EC50) was put at 517 nM. In addition, on CFTR ΔF508 mutant, the “% Activation” value was determined as 119.0% and the midpoint of the response, the EC50, lay at 9.9 nM.
As to `CC1CCCN(S(=O)(=O)c2cnc(C(=O)NCC(O)C(F)(F)F)c(N)c2)C1` (stereo not shown) [Compound 182, 3-amino-5-[(3-methylpiperidin-1-yl)sulfonyl]-N-(3,3,3-trifluoro-2-hydroxypropyl)pyridine-2-carboxamide], on CFTR G551D mutant, the “% Activation” value is 51.3% and the EC50 was found to be 645 nM. In addition, on CFTR ΔF508 mutant, the “% Activation” value worked out at 112.7% and the midpoint of the response, the EC50, lay at 4.7 nM.
The matching figures for `Nc1cc(S(=O)(=O)c2ccc(C(F)(F)F)cc2)cnc1C(=O)NCC(O)COCC(F)(F)F` (stereo not shown) [Compound 201, 3-amino-N-[2-hydroxy-3-(2,2,2-trifluoroethoxy)propyl]-5-{[4-(trifluoromethyl)phenyl]sulfonyl}pyridine-2-carboxamide]: 59.8%, 523 nM, 104.0% and 14.7 nM.
